# Laboratory results reported in PMC11589570, “Critical assessment of LC3/GABARAP ligands used for degrader development and ligandability of LC3/GABARAP binding pockets” (Nature Communications, 2024).
# Values joined by “and” are separate entries in the source; they are usually repeats but may differ in a detail not shown here. Equal values may be shown once.
# Experiments:
# Assay in all cases: FP assay with Cy5-labelled p62 LIR tracer (protein titration and tracer displacement)
# [1] = biological target: LC3C (Homo sapiens, UniProt Q9BXW4); assay type: binding; details: for normalized FP signal, p62 LIR tracer displacement: LC3C, listed as 10O5; for compound titration LC3C (displacement curve, FP signal): two replicate columns per compound
# LC3C, sequence (Q9BXW4 1-126): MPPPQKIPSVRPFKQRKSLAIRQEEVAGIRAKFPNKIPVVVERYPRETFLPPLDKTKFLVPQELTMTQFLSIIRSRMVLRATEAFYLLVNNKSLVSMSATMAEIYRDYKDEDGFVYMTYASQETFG
# [2] = biological target: GABARAP (Homo sapiens, UniProt O95166); assay type: binding; details: for normalized FP signal, p62 LIR tracer displacement: GABARAP; for compound titration GABARAP (displacement curve, FP signal): two replicate columns per compound
# GABARAP, sequence (O95166 1-116): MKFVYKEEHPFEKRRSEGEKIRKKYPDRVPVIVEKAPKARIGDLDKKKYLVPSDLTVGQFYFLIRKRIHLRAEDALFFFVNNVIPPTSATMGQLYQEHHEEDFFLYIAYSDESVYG
# [3] = biological target: GABARAPL2 (Homo sapiens, UniProt P60520); details: GABARAPL2
# GABARAPL2, sequence (P60520 whole entry): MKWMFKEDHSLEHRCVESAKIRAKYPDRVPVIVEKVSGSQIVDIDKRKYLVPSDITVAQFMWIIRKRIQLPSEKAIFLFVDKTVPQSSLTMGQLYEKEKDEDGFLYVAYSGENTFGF
# [4] = biological target: GABARAPL1 (Homo sapiens, UniProt Q9H0R8); assay type: binding; details: for normalized FP signal, p62 LIR tracer displacement: GABARAPL1; for compound titration GABARAPL1 (displacement curve, FP signal): two replicate columns per compound; for FP tracer displacement curve signal (compound titration): duplicate values
# GABARAPL1, sequence (Q9H0R8 whole entry): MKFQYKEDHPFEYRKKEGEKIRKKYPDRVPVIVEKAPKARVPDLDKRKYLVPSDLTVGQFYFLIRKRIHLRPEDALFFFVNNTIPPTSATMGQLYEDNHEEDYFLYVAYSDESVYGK
# [5] = log10 concentration [M] -3.82391
# [6] = log10 concentration [M] -4.1549
# [7] = log10 concentration [M] -4.60206
# [8] = log10 concentration [M] -5.30103
# [9] = log10 concentration [M] -5.69897
# [10] = log10 concentration [M] -6.22185
# [11] = log10 concentration [M] -6.69897
# [12] = log10 concentration [M] -7.30103
# [13] = log10 concentration [M] -7.79588
# [14] = log10 concentration [M] -8.08092
# [15] = log10 concentration [M] -3.82391, listed as 10O5
# [16] = log10 concentration [M] -4.1549, listed as 10O5
# [17] = log10 concentration [M] -4.60206, listed as 10O5
# [18] = log10 concentration [M] -5, listed as 10O5
# [19] = log10 concentration [M] -5.30103, listed as 10O5
# [20] = log10 concentration [M] -5.69897, listed as 10O5
# [21] = log10 concentration [M] -6.22185, listed as 10O5
# [22] = log10 concentration [M] -6.69897, listed as 10O5
# [23] = log10 concentration [M] -7.79588, listed as 10O5
# [24] = log10 concentration [M] -8.08092, listed as 10O5
# [25] = log10 concentration [M] -7.30103, listed as 10O5
smiles,measurement,setting,value
O=C1Nc2ccc(I)cc2C1=Cc1cc(Br)c(O)c(Br)c1 [compound 4],"normalized FP signal, p62 LIR tracer displacement",[1]; [5],72 and 75.2
same,"normalized FP signal, p62 LIR tracer displacement",[1]; [6],84 and 83
same,"normalized FP signal, p62 LIR tracer displacement",[1]; [7],88.8 and 96.4
same,"normalized FP signal, p62 LIR tracer displacement",[1]; log10 concentration [M] -5,88.2 and 92
same,"normalized FP signal, p62 LIR tracer displacement",[1]; [8],89.2 and 95.2
same,"normalized FP signal, p62 LIR tracer displacement",[1]; [9],86.6 and 88
same,"normalized FP signal, p62 LIR tracer displacement",[1]; [10],92 and 91.4
same,"normalized FP signal, p62 LIR tracer displacement",[1]; [11],94.6 and 95.8
same,"normalized FP signal, p62 LIR tracer displacement",[1]; [12],94.2 and 92.8
same,"normalized FP signal, p62 LIR tracer displacement",[1]; [13],92 and 89
same,"normalized FP signal, p62 LIR tracer displacement",[1]; [14],93.2 and 93.6
same,"compound titration LC3C (displacement curve, FP signal)",[1]; [5],72 and 75.2
same,"compound titration LC3C (displacement curve, FP signal)",[1]; [6],84 and 83
same,"compound titration LC3C (displacement curve, FP signal)",[1]; [7],88.8 and 96.4
same,"compound titration LC3C (displacement curve, FP signal)",[1]; log10 concentration [M] -5,88.2 and 92
same,"compound titration LC3C (displacement curve, FP signal)",[1]; [8],89.2 and 95.2
same,"compound titration LC3C (displacement curve, FP signal)",[1]; [9],86.6 and 88
same,"compound titration LC3C (displacement curve, FP signal)",[1]; [10],92 and 91.4
same,"compound titration LC3C (displacement curve, FP signal)",[1]; [11],94.6 and 95.8
same,"compound titration LC3C (displacement curve, FP signal)",[1]; [12],94.2 and 92.8
same,"compound titration LC3C (displacement curve, FP signal)",[1]; [13],92 and 89
same,"compound titration LC3C (displacement curve, FP signal)",[1]; [14],93.2 and 93.6
same,"normalized FP signal, p62 LIR tracer displacement",[2]; [15],56.3793 and 55.1724
same,"normalized FP signal, p62 LIR tracer displacement",[2]; [16],77.5862 and 81.7241
same,"normalized FP signal, p62 LIR tracer displacement",[2]; [17],88.4483 and 91.2069
same,"normalized FP signal, p62 LIR tracer displacement",[2]; [18],92.4138 and 92.2414
same,"normalized FP signal, p62 LIR tracer displacement",[2]; [19],93.9655 and 94.4828
same,"normalized FP signal, p62 LIR tracer displacement",[2]; [20],85.8621 and 86.7241
same,"normalized FP signal, p62 LIR tracer displacement",[2]; [21],92.2414 and 93.1034
same,"normalized FP signal, p62 LIR tracer displacement",[2]; [22],96.7241 and 92.4138
same,"normalized FP signal, p62 LIR tracer displacement",[2]; [12],97.069
same,"normalized FP signal, p62 LIR tracer displacement",[2]; [23],90.8621 and 91.5517
same,"normalized FP signal, p62 LIR tracer displacement",[2]; [24],93.2759 and 95
same,"compound titration GABARAP (displacement curve, FP signal)",[2]; [5],56.3793 and 55.1724
same,"compound titration GABARAP (displacement curve, FP signal)",[2]; [6],77.5862 and 81.7241
same,"compound titration GABARAP (displacement curve, FP signal)",[2]; [7],88.4483 and 91.2069
same,"compound titration GABARAP (displacement curve, FP signal)",[2]; log10 concentration [M] -5,92.4138 and 92.2414
same,"compound titration GABARAP (displacement curve, FP signal)",[2]; [8],93.9655 and 94.4828
same,"compound titration GABARAP (displacement curve, FP signal)",[2]; [9],85.8621 and 86.7241
same,"compound titration GABARAP (displacement curve, FP signal)",[2]; [10],92.2414 and 93.1034
same,"compound titration GABARAP (displacement curve, FP signal)",[2]; [11],96.7241 and 92.4138
same,"compound titration GABARAP (displacement curve, FP signal)",[2]; [12],97.069
same,"compound titration GABARAP (displacement curve, FP signal)",[2]; [13],90.8621 and 91.5517
same,"compound titration GABARAP (displacement curve, FP signal)",[2]; [14],93.2759 and 95
same,interaction in FP displacement assay,[3],weak interaction
same,"normalized FP signal, p62 LIR tracer displacement",[3]; [15],56 and 50.4
same,"normalized FP signal, p62 LIR tracer displacement",[3]; [16],57.2 and 62.4
same,"normalized FP signal, p62 LIR tracer displacement",[3]; [17],87.2 and 100.4
same,"normalized FP signal, p62 LIR tracer displacement",[3]; [18],94.4 and 99.2
same,"normalized FP signal, p62 LIR tracer displacement",[3]; [19],99.6 and 96
same,"normalized FP signal, p62 LIR tracer displacement",[3]; [20],86.4 and 92.4
same,"normalized FP signal, p62 LIR tracer displacement",[3]; [10],100.4
same,"normalized FP signal, p62 LIR tracer displacement",[3]; [21],93.6
same,"normalized FP signal, p62 LIR tracer displacement",[3]; [22],96 and 103.2
same,"normalized FP signal, p62 LIR tracer displacement",[3]; [25],102.4 and 90.4
same,"normalized FP signal, p62 LIR tracer displacement",[3]; [13],94.8
same,"normalized FP signal, p62 LIR tracer displacement",[3]; [23],95.2
same,"normalized FP signal, p62 LIR tracer displacement",[3]; [24],111.2 and 97.6
same,"normalized FP signal, p62 LIR tracer displacement",[4]; [15],50.4286 and 47.7143
same,"normalized FP signal, p62 LIR tracer displacement",[4]; [16],71.5714 and 73.7143
same,"normalized FP signal, p62 LIR tracer displacement",[4]; [17],89.5714 and 91.4286
same,"normalized FP signal, p62 LIR tracer displacement",[4]; [18],97.1429 and 94.8571
same,"normalized FP signal, p62 LIR tracer displacement",[4]; [19],95.1429 and 97.7143
same,"normalized FP signal, p62 LIR tracer displacement",[4]; [20],91.7143 and 95.8571
same,"normalized FP signal, p62 LIR tracer displacement",[4]; [21],93.8571 and 96
same,"normalized FP signal, p62 LIR tracer displacement",[4]; [22],97.2857 and 99.8571
same,"normalized FP signal, p62 LIR tracer displacement",[4]; [25],99.2857 and 97.7143
same,"normalized FP signal, p62 LIR tracer displacement",[4]; [13],97
same,"normalized FP signal, p62 LIR tracer displacement",[4]; [24],97.1429 and 98.4286
same,"compound titration GABARAPL1 (displacement curve, FP signal)",[4]; [5],50.4286 and 47.7143
same,"compound titration GABARAPL1 (displacement curve, FP signal)",[4]; [6],71.5714 and 73.7143
same,"compound titration GABARAPL1 (displacement curve, FP signal)",[4]; [7],89.5714 and 91.4286
same,"compound titration GABARAPL1 (displacement curve, FP signal)",[4]; log10 concentration [M] -5,97.1429 and 94.8571
same,FP tracer displacement curve signal (compound titration),[4]; [20],91.7143 and 95.8571
same,FP tracer displacement curve signal (compound titration),[4]; [21],93.8571 and 96
same,FP tracer displacement curve signal (compound titration),[4]; [22],97.2857 and 99.8571
same,FP tracer displacement curve signal (compound titration),[4]; [25],99.2857 and 97.7143
same,FP tracer displacement curve signal (compound titration),[4]; [13],97
same,FP tracer displacement curve signal (compound titration),[4]; [24],97.1429 and 98.4286
